Experimental data as given in patent publication US10689331B2, “IDO inhibitors” (Bristol-Myers Squibb Company, priority 2015, dated 2020).
Counter-ions that a name gives are not always drawn.

target: T1, human IDO1 (Homo sapiens, UniProt P14902); assay: HEK Human IDO-1 inhibition assay (kynurenine readout, Ehrlich reagent, absorbance 490 nm); type: cell-based; conditions: human IDO1/HEK293 cells, incubated 20 hours with compound; 500 nM reference standard = 100% inhibition
T1 construct: expressed in transfected cells
Description: HEK293 cells were transfected with a pCDNA-based mammalian expression vector harboring human IDO1 cDNA (NM 002164.2) by electroporation. They were cultured in medium (DMEM with 10% FBS) containing 1 mg/ml G418 for two weeks. Clones of HEK293 cells that stably expressed human IDO1 protein were selected and expanded for IDO inhibition assay.
The human IDO1/HEK293 cells were seeded at 10,000 cells per 50 uL per well with RPMI/phenol red free media contains 10% FBS in a 384-well black wall clear bottom tissue culture plate (Matrix Technologies LLC) 100 nL of certain concentration of compound was then added to each well using ECHO liquid handling systems. The cells were incubated for 20 hours in 37° C. incubator with 5% CO2.
The compound treatments were stopped by adding Trichloroacetic Acid (Sigma-Aldrich) to a final concentration at 0.2%. The cell plate was further incubated at 50° C. for 30 minute. The equal volume supernatant (20 uL) and 0.2% (w/v) Ehrlich reagent (4-dimethylaminobenzaldehyde, Sigma-Aldrich) in glacial acetic acid were mixed in a new clear bottom 384-well plate. This plate was then incubated at room temperature for 30 minute. The absorbance at 490 nm was measured on Envision plate reader. Compound IC50 values were calculated using the counts of 500 nM of a reference standard treatment as one hundred percent inhibition, and counts of no compound but DMSO treatment as zero percent inhibition.

T1 sequence (P14902 whole entry): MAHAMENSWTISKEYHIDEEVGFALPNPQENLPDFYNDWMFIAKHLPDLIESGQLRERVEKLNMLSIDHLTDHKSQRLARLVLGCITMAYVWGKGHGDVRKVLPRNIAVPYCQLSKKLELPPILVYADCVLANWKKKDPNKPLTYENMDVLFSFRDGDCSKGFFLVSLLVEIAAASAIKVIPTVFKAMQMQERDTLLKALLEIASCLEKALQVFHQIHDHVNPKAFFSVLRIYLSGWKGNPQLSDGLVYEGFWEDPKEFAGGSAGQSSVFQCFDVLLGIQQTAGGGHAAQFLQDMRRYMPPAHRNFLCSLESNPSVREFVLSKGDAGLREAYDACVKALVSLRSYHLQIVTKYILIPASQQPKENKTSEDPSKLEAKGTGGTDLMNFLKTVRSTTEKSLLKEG

Compound	IC50 [nM]
CCC(Oc1ccc(N(CC(C)C)C2CCCCC2)c(NC(=O)Nc2ccccc2F)c1)C(=O)O (single isomer, unassigned) [Example 81-1, 2-(4-(cyclohexyl(isobutyl)amino)-3-(3-(2-fluorophenyl)ureido)phenoxy)butanoic acid]	< 5
CCC(Oc1ccc(N(CC(C)C)C2CCCCC2)c(NC(=O)Nc2ccccc2F)c1)C(=O)O (single isomer, unassigned) [Example 81-2, 2-(4-(cyclohexyl(isobutyl)amino)-3-(3-(2-fluorophenyl)ureido)phenoxy)butanoic acid]	< 5
CCC(Oc1ccc(N(CC(C)C)C2CCCCC2)c(NC(=O)Nc2ccc(C)cc2)c1)C(=O)O (single isomer, unassigned) [Example 82-1, 2-(4-(cyclohexyl(isobutyl)amino)-3-(3-(p-tolyl)ureido)phenoxy)butanoic acid]	< 5
CCC(Oc1ccc(N(CC(C)C)C2CCCCC2)c(NC(=O)Nc2ccc(C)cc2)c1)C(=O)O (single isomer, unassigned) [Example 82-2, 2-(4-(cyclohexyl(isobutyl)amino)-3-(3-(p-tolyl)ureido)phenoxy)butanoic acid]	< 100
CCCC(Oc1ccc(N(CC(C)C)C2CCCCC2)c(NC(=O)Nc2ccc(C)cc2)c1)C(=O)O (single isomer, unassigned) [Example 86-1, 2-(4-(cyclohexyl(isobutyl)amino)-3-(3-(p-tolyl)ureido)phenoxy)pentanoic acid]	< 100
CCCC(Oc1ccc(N(CC(C)C)C2CCCCC2)c(NC(=O)Nc2ccc(C)cc2)c1)C(=O)O (single isomer, unassigned) [Example 86-2, 2-(4-(cyclohexyl(isobutyl)amino)-3-(3-(p-tolyl)ureido)phenoxy)pentanoic acid]	< 5
CCCC(Oc1ccc(N(CC(C)C)C2CCCCC2)c(NC(=O)Nc2ccccc2F)c1)C(=O)O (single isomer, unassigned) [Example 87-1, 2-(4-(cyclohexyl(isobutyl)amino)-3-(3-(2-fluorophenyl)ureido)phenoxy)pentanoic acid]	< 5
CCCC(Oc1ccc(N(CC(C)C)C2CCCCC2)c(NC(=O)Nc2ccccc2F)c1)C(=O)O (single isomer, unassigned) [Example 87-2, 2-(4-(cyclohexyl(isobutyl)amino)-3-(3-(2-fluorophenyl)ureido)phenoxy)pentanoic acid]	< 5
CCCC(Oc1ccc(N(CC(C)C)C2CCCCC2)c(NC(=O)Nc2cncnc2)c1)C(=O)O (single isomer, unassigned) [Example 88-1, 2-(4-(cyclohexyl(isobutyl)amino)-3-(3-(pyrimidin-5-yl)ureido)phenoxy)pentanoic acid]	≥ 100
CCCC(Oc1ccc(N(CC(C)C)C2CCCCC2)c(NC(=O)Nc2cncnc2)c1)C(=O)O (single isomer, unassigned) [Example 88-2, 2-(4-(cyclohexyl(isobutyl)amino)-3-(3-(pyrimidin-5-yl)ureido)phenoxy)pentanoic acid]	< 100
COCC(Oc1ccc(N(CC(C)C)C2CCCCC2)c(NC(=O)Nc2ccc(C)cc2)c1)C(=O)O (single isomer, unassigned) [Example 90-1, 2-(4-(cyclohexyl(isobutyl)amino)-3-(3-(p-tolyl)ureido)phenoxy)-3-methoxypropanoic acid]	≥ 100
COCC(Oc1ccc(N(CC(C)C)C2CCCCC2)c(NC(=O)Nc2ccc(C)cc2)c1)C(=O)O (single isomer, unassigned) [Example 90-2, 2-(4-(cyclohexyl(isobutyl)amino)-3-(3-(p-tolyl)ureido)phenoxy)-3-methoxypropanoic acid]	< 100
C=C(C)CN(c1ccc(OC(C)C(=O)O)cc1NC(=O)Nc1ccc(Cl)cc1F)C1CCOCC1 (single isomer, unassigned) [Example 139-1, 2-(3-(3-(4-chloro-2-fluorophenyl)ureido)-4-((2-methylallyl)(tetrahydro-2H-pyran-4-yl)amino)phenoxy)propanoic acid]	< 100
C=C(C)CN(c1ccc(OC(C)C(=O)O)cc1NC(=O)Nc1ccc(Cl)cc1F)C1CCOCC1 (single isomer, unassigned) [Example 139-2, 2-(3-(3-(4-chloro-2-fluorophenyl)ureido)-4-((2-methylallyl)(tetrahydro-2H-pyran-4-yl)amino)phenoxy)propanoic acid]	< 5
CCC(Oc1ccc(N(CC(C)C)C2CCOCC2)c(NC(=O)Nc2ccc(Cl)cc2F)c1)C(=O)O (single isomer, unassigned) [Example 143-1, 2-(3-(3-(4-chloro-2-fluorophenyl)ureido)-4-(isobutyl(tetrahydro-2H-pyran-4-yl)amino)phenoxy)butanoic acid]	< 100
CCC(Oc1ccc(N(CC(C)C)C2CCOCC2)c(NC(=O)Nc2ccc(Cl)cc2F)c1)C(=O)O (single isomer, unassigned) [Example 143-2, 2-(3-(3-(4-chloro-2-fluorophenyl)ureido)-4-(isobutyl(tetrahydro-2H-pyran-4-yl)amino)phenoxy)butanoic acid]	< 5
CC(C)CN(c1ccc(OCC(=O)O)cc1NC(=O)Nc1cncnc1)C1CCCCC1 [Example 2, 2-(4-(cyclohexyl(isobutyl)amino)-3-(3-(pyrimidin-5-yl)ureido)phenoxy)acetic acid]	≥ 100

The next lines start with the values.

IC50 [nM]	Compound
< 100	CCOC(=O)C(C)Oc1ccc(N(CC(C)C)C2CCCCC2)c(NC(=O)Nc2ccc(Cl)cc2F)c1 (single isomer, unassigned) [Example 67-1, ethyl 2-(3-(3-(4-chloro-2-fluorophenyl)ureido)-4-(cyclohexyl(isobutyl)amino)phenoxy)propanoate]
< 5	CCOC(=O)C(C)Oc1ccc(N(CC(C)C)C2CCCCC2)c(NC(=O)Nc2ccc(Cl)cc2F)c1 (single isomer, unassigned) [Example 67-2, ethyl 2-(3-(3-(4-chloro-2-fluorophenyl)ureido)-4-(cyclohexyl(isobutyl)amino)phenoxy)propanoate]
< 5	CCC(Oc1ccc(N(CC(C)C)C2CCCCC2)c(NC(=O)Nc2ccc(Cl)cc2F)c1)C(=O)O (single isomer, unassigned) [Example 80-1, 2-(3-(3-(4-chloro-2-fluorophenyl)ureido)-4-(cyclohexyl(isobutyl)amino)phenoxy)butanoic acid]
< 5	CCC(Oc1ccc(N(CC(C)C)C2CCCCC2)c(NC(=O)Nc2ccc(Cl)cc2F)c1)C(=O)O (single isomer, unassigned) [Example 80-2, 2-(3-(3-(4-chloro-2-fluorophenyl)ureido)-4-(cyclohexyl(isobutyl)amino)phenoxy)butanoic acid]
< 5	CCCC(Oc1ccc(N(CC(C)C)C2CCCCC2)c(NC(=O)Nc2ccc(Cl)cc2F)c1)C(=O)O (single isomer, unassigned) [Example 85-1, 2-(3-(3-(4-chloro-2-fluorophenyl)ureido)-4-(cyclohexyl(isobutyl)amino)phenoxy)pentanoic acid]
< 5	CCCC(Oc1ccc(N(CC(C)C)C2CCCCC2)c(NC(=O)Nc2ccc(Cl)cc2F)c1)C(=O)O (single isomer, unassigned) [Example 85-2, 2-(3-(3-(4-chloro-2-fluorophenyl)ureido)-4-(cyclohexyl(isobutyl)amino)phenoxy)pentanoic acid]
< 5	COCC(Oc1ccc(N(CC(C)C)C2CCCCC2)c(NC(=O)Nc2ccc(Cl)cc2F)c1)C(=O)O (single isomer, unassigned) [Example 89-1, 2-(3-(3-(4-chloro-2-fluorophenyl)ureido)-4-(cyclohexyl(isobutyl)amino)phenoxy)-3-methoxypropanoic acid]
< 100	COCC(Oc1ccc(N(CC(C)C)C2CCCCC2)c(NC(=O)Nc2ccc(Cl)cc2F)c1)C(=O)O (single isomer, unassigned) [Example 89-2, 2-(3-(3-(4-chloro-2-fluorophenyl)ureido)-4-(cyclohexyl(isobutyl)amino)phenoxy)-3-methoxypropanoic acid]
< 5	CC(C)CN(c1cc(F)c(OC(C)C(=O)O)cc1NC(=O)Nc1ccc(Cl)cc1F)C1CCCCC1 (single isomer, unassigned) [Example 136-1, 2-(5-(3-(4-chloro-2-fluorophenyl)ureido)-4-(cyclohexyl(isobutyl)amino)-2-fluorophenoxy)propanoic acid.TFA]
≥ 100	CC(C)CN(c1ccc(OC(C)C(=O)O)cc1NC(=O)Nc1ccc(Cl)cc1F)C1CCOC1 (single isomer, unassigned) [Example 146-1, 2-(3-(3-(4-chloro-2-fluorophenyl)ureido)-4-(isobutyl(tetrahydrofuran-3-yl)amino)phenoxy)propanoic acid]
< 100	CC(C)CN(c1ccc(OC(C)C(=O)O)cc1NC(=O)Nc1ccc(Cl)cc1F)C1CCOC1 (single isomer, unassigned) [Example 146-2, 2-(3-(3-(4-chloro-2-fluorophenyl)ureido)-4-(isobutyl(tetrahydrofuran-3-yl)amino)phenoxy)propanoic acid]
< 5	CC(C)CN(c1ccc(OCC(=O)O)cc1NC(=O)Nc1ccc(Cl)cc1F)C1CCCCC1 [Example 1, 2-(3-(3-(4-chloro-2-fluorophenyl)ureido)-4-(cyclohexyl(isobutyl)amino)phenoxy)acetic acid]
